In patent US20240148709A1, “METHODS OF TREATING EYE PAIN AND EYE DISORDERS” (Aisa Pharma, Inc., priority 2022, published 2024):

Tested on: participants with SSc-RP
Assay: Scleroderma Health Assessment Questionnaire (SHAQ), Phase 2a study Part A
Assay type: in vivo, human
Details: for % change in Pain (SHAQ): mITT
Procedure: Part A—double-blind, placebo-controlled, parallel-group, dose selection, will assess the safety and efficacy of two doses of cilnidipine (10 mg and 20 mg), alone and in combination with tadalafil. A total of 36 participants will be randomized to one of six prespecified treatment arms. Refer to FIG. 1 for treatment arms in Part A of the study. Dosing last for 12 (±2) days in which participants will self-administer daily doses of assigned treatment in the morning. Each participant will take one capsule and one tablet to blind the active therapy being received.
The standard, validated, patient reported outcome measures tool for SSc patients, the SHAQ, will be collected at the time points specified in the study schedules (FIG. 2 and FIGS. 3A and 3B) to assess the participant's quality of life. The SHAQ includes a Raynaud's VAS that will also be reported separately.
Results: Patients in the study were administered the Scleroderma Health Assessment Questionnaire (SHAQ) at the time of study entry and during clinic visits following the treatment period. The study is a two-part, parallel arm design, prospective, double-blind, randomized study conducted in Australia (Flinders Medical Center). 27 patients were randomized into the first phase of the study, following which a DSMB meeting was held, which reviewed data on the primary study endpoint and key Raynaud's secondary endpoints. Data on the SHAQ was not available for the DSMB to review. The mITT population, in which any data was available post treatment was 24 patients was the analysis population for this first part of the study. The second part (i.e., part B) of the study will randomize 36 patients in a double blind, randomized, prospective, placebo controlled, crossover study. In the first part (i.e., Part A) of the study for which data is presented, patients were randomized into 6 groups, cilnidipine at two doses (10 and 20 mg) alone and in combination with tadalafil 5 mg, tadalafil 5 mg alone, and placebo. […] The DSMB recommended that the study proceed into its double blind prospective cross overpowered second phase and compare cilnidipine 20 mg alone to placebo.

[1] = Pooled Cilnidipine 10 mg or 20 mg (N = 7)
[2] = Pooled Cilnidipine 10 mg or 20 mg (n = 6)
[3] = cilnidipine 10 mg and/or tadalafil 5 mg arms

COCCOC(=O)C1=C(C)NC(C)=C(C(=O)OC/C=C/c2ccccc2)C1c1cccc([N+](=O)[O-])c1 (stereo not drawn) [Cilnidipine, cilnidipine]
% change VAS Raynauds (Cilnidipine 20 mg (n = 3)): −49% | % change in Alternative Disability Index (Cilnidipine 20 mg (n = 3)): −42% | % change in Standard Disability Index (Cilnidipine 20 mg (n = 3)): −50% | % change overall SSc Disease Severity (Cilnidipine 20 mg (n = 3)): −63% (i.e., improvement) | % improvement in Breathing (median) (Cilnidipine 20 mg (n = 3)): 67% (median) | % improvement in VAS Digital Ulcers (Cilnidipine 20 mg (n = 3)): 35% | Alternative disability index, % improvement (Cilnidipine 20 mg (n = 3)): 42% improvement | Standard disability Index, % improvement (Cilnidipine 20 mg (n = 3)): 50% improvement | VAS - Breathing problems, % improvement (Cilnidipine 20 mg (n = 3)): 75% improvement* | VAS - Raynaud's, % improvement (Cilnidipine 20 mg (n = 3)): 55% improvement | VAS Overall Disease Severity, % improvement (Cilnidipine 20 mg (n = 3)): 63% improvement | % change in Pain (SHAQ) (Cilnidipine 20 mg (n = 3)): −53% | VAS- PAIN, % improvement (Cilnidipine 20 mg (n = 3), baseline 2.17 on a 0-10 VAS): 53% improvement* | SHAQ overall disease severity, Change from Baseline, Max [1]: 0.20 | SHAQ overall disease severity, Change from Baseline, Mean (SD) [1]: −1.214 (0.7946) | SHAQ overall disease severity, Change from Baseline, Median [1]: −1.500 | SHAQ overall disease severity, Change from Baseline, Min [1]: −1.90 | SHAQ overall disease severity, Change from Baseline, Q1 [1]: −1.800 | SHAQ overall disease severity, Change from Baseline, Q3 [1]: −0.400 | SHAQ overall disease severity, In-Clinic Visit (Day 12), Max [1]: 5.20 | SHAQ overall disease severity, In-Clinic Visit (Day 12), Mean (SD) [1]: 1.486 (1.7743) | SHAQ overall disease severity, In-Clinic Visit (Day 12), Median [1]: 1.200 | SHAQ overall disease severity, In-Clinic Visit (Day 12), Min [1]: 0.00 | SHAQ overall disease severity, In-Clinic Visit (Day 12), Q1 [1]: 0.200 | SHAQ overall disease severity, In-Clinic Visit (Day 12), Q3 [1]: 1.900 | SHAQ overall disease severity, Percent Change from Baseline, Max [2]: −26.8% | SHAQ overall disease severity, Percent Change from Baseline, Mean (SD) [2]: −59.80 (25.642) % | SHAQ overall disease severity, Percent Change from Baseline, Median [2]: −55.86% | SHAQ overall disease severity, Percent Change from Baseline, Min [2]: −100.0% | SHAQ overall disease severity, Percent Change from Baseline, Q1 [2]: −76.19% | SHAQ overall disease severity, Percent Change from Baseline, Q3 [2]: −44.12% | % change VAS Raynauds (Pooled Cilnidipine (n = 7)): −17% | % change in Alternative Disability Index (Pooled Cilnidipine (n = 7)): −13% | % change in Standard Disability Index (Pooled Cilnidipine (n = 7)): −25% | % change overall SSc Disease Severity (Pooled Cilnidipine (n = 7)): −60% (i.e., improvement) | % improvement in Breathing (median) (Pooled Cilnidipine (n = 7)): 41% (median) | % improvement in VAS Digital Ulcers (Pooled Cilnidipine (n = 7)): 19% | % change in Pain (SHAQ) (Pooled Cilnidipine (n = 7)): −31% | % from baseline, Intestinal Problems, mean (Pooled cilnidipine): −32.4% | % from baseline, Intestinal Problems, median (Pooled cilnidipine): −44.1% | % from baseline, VAS Breathing, mean (Pooled cilnidipine): −8.2% | % from baseline, VAS Breathing, median (Pooled cilnidipine): −41.3% | % from baseline, VAS Finger Ulcers, mean (Pooled cilnidipine): −17.1% | % from baseline, VAS Finger Ulcers, median (Pooled cilnidipine): −50.9% | % from baseline, VAS Overall Disease Severity, mean (Pooled cilnidipine): −59.8% | % from baseline, VAS Overall Disease Severity, median (Pooled cilnidipine): −55.9% | % from baseline, VAS Pain, mean (Pooled cilnidipine): −31.2% | % from baseline, VAS Pain, median (Pooled cilnidipine): −45% | % from baseline, VAS Raynaud's, mean (Pooled cilnidipine): −18.6% | % from baseline, VAS Raynaud's, median (Pooled cilnidipine): −38.7% | % from baseline, alternative disability, mean (Pooled cilnidipine): −12.9% | % from baseline, alternative disability, median (Pooled cilnidipine): −22.2% | % from baseline, standard disability, mean (Pooled cilnidipine): −25% | % from baseline, standard disability, median (Pooled cilnidipine): −16.7% | SHAQ Finger Ulcers, Change from Baseline, Max [3]: 0.00 | SHAQ Finger Ulcers, Change from Baseline, Mean (SD) [3]: −0.425 (0.5058) | SHAQ Finger Ulcers, Change from Baseline, Median [3]: −0.350 | SHAQ Finger Ulcers, Change from Baseline, Min [3]: −1.00 | SHAQ Finger Ulcers, Change from Baseline, Q1 [3]: −0.850 | SHAQ Finger Ulcers, Change from Baseline, Q3 [3]: 0.000 | SHAQ Finger Ulcers, In Clinic Visit (Day 12), Max [3]: 1.10 | SHAQ Finger Ulcers, In Clinic Visit (Day 12), Mean (SD) [3]: 0.275 (0.5500) | SHAQ Finger Ulcers, In Clinic Visit (Day 12), Median [3]: 0.000 | SHAQ Finger Ulcers, In Clinic Visit (Day 12), Min [3]: 0.00 | SHAQ Finger Ulcers, In Clinic Visit (Day 12), Q1 [3]: 0.000 | SHAQ Finger Ulcers, In Clinic Visit (Day 12), Q3 [3]: 0.550 | SHAQ Finger Ulcers, Percent Change from Baseline, Max [3]: −38.9% | SHAQ Finger Ulcers, Percent Change from Baseline, Mean (SD) [3]: −69.44 (43.212) % | SHAQ Finger Ulcers, Percent Change from Baseline, Median [3]: −69.44% | SHAQ Finger Ulcers, Percent Change from Baseline, Min [3]: −100.0% | SHAQ Finger Ulcers, Percent Change from Baseline, Q1 [3]: −100.00% | SHAQ Finger Ulcers, Percent Change from Baseline, Q3 [3]: −38.89% | SHAQ Overall Change in Severity, Change from Baseline, Max [3]: 0.20 | SHAQ Overall Change in Severity, Change from Baseline, Mean (SD) [3]: −0.900 (0.9695) | SHAQ Overall Change in Severity, Change from Baseline, Median [3]: −0.950 | SHAQ Overall Change in Severity, Change from Baseline, Min [3]: −1.90 | SHAQ Overall Change in Severity, Change from Baseline, Q1 [3]: −1.700 | SHAQ Overall Change in Severity, Change from Baseline, Q3 [3]: −0.100 | SHAQ Overall Change in Severity, In Clinic Visit (Day 12), Max [3]: 5.20 | SHAQ Overall Change in Severity, In Clinic Visit (Day 12), Mean (SD) [3]: 1.825 (2.4061) | SHAQ Overall Change in Severity, In Clinic Visit (Day 12), Median [3]: 1.050 | SHAQ Overall Change in Severity, In Clinic Visit (Day 12), Min [3]: 0.00 | SHAQ Overall Change in Severity, In Clinic Visit (Day 12), Q1 [3]: 0.100 | SHAQ Overall Change in Severity, In Clinic Visit (Day 12), Q3 [3]: 3.550
